The values that follow come from ChEMBL document CHEMBL2046334, “New farnesyltransferase inhibitors in the phenothiazine series” (Bioorg Med Chem Lett, 2012).

For orientation: IC50 means the concentration at which inhibition is half-maximal. As a reminder, the inhibition is the relative decrease from the control value, in per cent.

Calls of active or inactive are those of the source. No cut-off for these calls is given here.

For assay [1], the target named is T1, Protein farnesyltransferase (Homo sapiens, UniProt P49354+P49356). The assay can be described thus: Inhibition of partially purified human recombinant FTase measured for 15 mins by automated fluorescence based assay. Format: protein-complex assay.
Assay [2] concerns the target T1, Protein farnesyltransferase. In words: Inhibition of partially purified human recombinant FTase at 100 uM measured for 15 mins by automated fluorescence based assay relative to control. Format: protein-complex assay.
Another assay has as its system CCRF-CEM. The assay can be described thus: Growth inhibition of human CCRF-CEM cells at 10 uM after 48 hrs by sulforhodamine B assay relative to control. It counts as functional. The following applies: read-out: GI. Background: Sulforhodamine B stains cellular protein and so reports cell mass.
For the next assay, the system named is CAKI-1. The assay can be described thus: Growth inhibition of human Caki1 cells at 10 uM after 48 hrs by sulforhodamine B assay relative to control. It counts as functional. Conditions: CAKI-1, 48 h, read-out: GI.
For another assay, the system named is OVCAR-8. The assay can be described thus: Growth inhibition of human OVCAR8 cells at 10 uM after 48 hrs by sulforhodamine B assay relative to control. It counts as functional. Conditions: for inhibition of growth at 10 µM: OVCAR-8, 48 h, read-out: GI.
A further assay has as its system UO-31. The assay can be described thus: Growth inhibition of human UO31 cells at 10 uM after 48 hrs by sulforhodamine B assay relative to control. It counts as functional. Conditions: UO-31, 48 h, read-out: GI.
The next assay has as its system MDA-MB-231. The assay can be described thus: Growth inhibition of human MDA-MB-231 cells at 10 uM after 48 hrs by sulforhodamine B assay relative to control. Format: functional. Conditions: MDA-MB-231, 48 h, read-out: GI.
For a further assay, the system named is SNB-75. In words: Growth inhibition of human SNB75 cells at 10 uM after 48 hrs by sulforhodamine B assay relative to control. Format: functional. The following applies: SNB-75, 48 h, read-out: GI.
In a further assay the test system is RPMI-8226. In words: Growth inhibition of human RPMI8226 cells at 10 uM after 48 hrs by sulforhodamine B assay relative to control. Format: functional. Conditions: RPMI-8226, 48 h, read-out: GI.
A further assay has as its system LOX IMVI. In words: Growth inhibition of human LOXIMVI cells at 10 uM after 48 hrs by sulforhodamine B assay relative to control. Conditions: for inhibition of growth at 10 µM: read-out: GI. It counts as functional.
Another assay has as its system HL-60(TB). In words: Growth inhibition of human HL-60(TB) cells at 10 uM after 48 hrs by sulforhodamine B assay relative to control. The following applies: HL-60, 48 h, read-out: GI. It counts as functional.
The next assay concerns T47D. In words: Growth inhibition of human T47D cells at 10 uM after 48 hrs by sulforhodamine B assay relative to control. It counts as functional. Conditions: read-out: GI.
For the next assay, the system named is UACC-62. The assay can be described thus: Growth inhibition of human UACC62 cells at 10 uM after 48 hrs by sulforhodamine B assay relative to control. The following applies: UACC-62, 48 h, read-out: GI. It counts as functional.
The subject of another assay is SK-MEL-5. The assay can be described thus: Growth inhibition of human SK-MEL-5 cells at 10 uM after 48 hrs by sulforhodamine B assay relative to control. Format: functional. Conditions: SK-MEL-5, 48 h, read-out: GI.
The subject of the next assay is HCT-15. In words: Growth inhibition of human HCT15 cells at 10 uM after 48 hrs by sulforhodamine B assay relative to control. The following applies: for inhibition of growth at 10 µM: HCT-15, 48 h, read-out: GI. Format: functional.
A further assay has as its system EKVX. The assay can be described thus: Growth inhibition of human EKVX cells at 10 uM after 48 hrs by sulforhodamine B assay relative to control. It counts as functional. The following applies: for inhibition of growth at 10 µM: read-out: GI.
The test system of a further assay is PC-3. The assay can be described thus: Growth inhibition of human PC3 cells at 10 uM after 48 hrs by sulforhodamine B assay relative to control. It counts as functional. Conditions: PC-3, 48 h, read-out: GI.
In a further assay the test system is MOLT-4. The assay can be described thus: Growth inhibition of human MOLT4 cells at 10 uM after 48 hrs by sulforhodamine B assay relative to control. It counts as functional. The following applies: MOLT-4, 48 h, read-out: GI.

`O=C(CCN1c2ccccc2Sc2ccccc21)OCc1cn(CC(=O)c2ccc(Br)cc2)nn1`: the IC50 in assay [1] worked out at 1.3 µM.
As to `Cc1ccc(C(=O)Cn2cc(CNC(=O)CCN3c4ccccc4Sc4ccccc43)nn2)cc1`, in assay [2], the inhibition was determined as 44.2%.
`Cc1ccc(C(=O)Cn2cc(CNC(=O)CN3c4ccccc4Sc4ccccc43)nn2)cc1`: the inhibition in [2] amounted to 19%.
The same measure, in the same setting: next, `O=C(CN1c2ccccc2Sc2ccccc21)NCc1cn(CC(=O)N2c3ccccc3Sc3ccccc32)nn1`: 0%; `N#Cc1ccc(C(=O)Cn2cc(COC(=O)CN3c4ccccc4Sc4ccccc43)nn2)cc1`: 20.7%.
For `N#Cc1ccc(C(=O)Cn2cc(CNC(=O)CCN3c4ccccc4Sc4ccccc43)nn2)cc1`, the IC50 in [1] is 5.2 µM.
For `O=C(CCN1c2ccccc2Sc2ccccc21)NCc1cn(CC(=O)c2ccc(Cl)cc2)nn1`, the half-maximal inhibitory concentration (IC50) in assay [1] was 7.7 µM. Moreover, the inhibition of growth at 10 µM with CCRF-CEM was found to be 19%; with CAKI-1, 32%; in the assay on OVCAR-8 it was 17%; in the assay with UO-31, 36%; with MDA-MB-231, 4%; in the assay on SNB-75 it was 20%. Further, the inhibition of growth at 10 µM was 19% with RPMI-8226; 9% with LOX IMVI; 68% in the assay with HL-60(TB); 22% in the assay with T47D; 26% with UACC-62; 13% with SK-MEL-5. In addition, the inhibition of growth at 10 µM in the assay on HCT-15 worked out at 8%; with EKVX it was 30%; with PC-3, 38%; in the assay on MOLT-4, 40%.
For `Cc1ccc(C(=O)Cn2cc(COC(=O)CCN3c4ccccc4Sc4ccccc43)nn2)cc1`, the inhibition in [2] was 10.7%.
Still for that read-out and setting: next, `O=C(CN1c2ccccc2Sc2ccccc21)NCc1cn(CC(=O)N2c3ccccc3Sc3ccc(Cl)cc32)nn1`: 0%; `COc1ccc(C(=O)Cn2cc(CNC(=O)CN3c4ccccc4Sc4ccccc43)nn2)cc1`: 24.4%.
As to `O=C(CN1c2ccccc2Sc2ccccc21)NCc1cn(CC(=O)c2ccc(Cl)cc2)nn1`, the inhibition in [2] turned out to be 40%.
On the same count and under the same terms, next, `N#Cc1ccc(C(=O)Cn2cc(CNC(=O)CN3c4ccccc4Sc4ccccc43)nn2)cc1`: 24.9%.
For the compound `O=C(CCN1c2ccccc2Sc2ccccc21)NCc1cn(CC(=O)N2c3ccccc3Sc3ccccc32)nn1`, the inhibition in assay [2] amounted to 0%.
As for `O=C(CCN1c2ccccc2Sc2ccccc21)OCc1cn(CC(=O)c2ccc(Cl)cc2)nn1`, the IC50 in assay [1] was 1.5 µM.
Turning to `COc1ccc(C(=O)Cn2cc(COC(=O)CCN3c4ccccc4Sc4ccccc43)nn2)cc1`, in assay [2], the inhibition amounted to 22.3%.
Still for that read-out and setting: as for `O=C(CN1c2ccccc2Sc2ccccc21)OCc1cn(CC(=O)c2ccc(Br)cc2)nn1`, the figure is 35.5%; as for `O=C(CN1c2ccccc2Sc2ccccc21)OCc1cn(CC(=O)c2ccc(F)cc2)nn1`, 31.9%; as for `O=C(CCN1c2ccccc2Sc2ccccc21)OCc1cn(CC(=O)c2ccc(F)cc2)nn1`, 35.2%.
`O=C(CCN1c2ccccc2Sc2ccccc21)NCc1cn(CC(=O)c2ccc(F)cc2)nn1`: the inhibition of growth at 10 µM was found to be 20% in the assay with CCRF-CEM; 17% in the assay with CAKI-1; 18% with UO-31; 3% in the assay with MDA-MB-231; 19% with SNB-75; 3% in the assay on RPMI-8226. Also, the inhibition of growth at 10 µM came to 12% with LOX IMVI; 20% with HL-60(TB); 7% with T47D; 14% in the assay with UACC-62; 14% in the assay on SK-MEL-5; 22% with EKVX. The inhibition of growth at 10 µM in the assay with PC-3 stood at 26%; in the assay with MOLT-4 it was 38%. In addition, the “growth inhibition (GI)” value with OVCAR-8 and with HCT-15 was “inactive” in each case. Moreover, in assay [2], the inhibition stood at 52.6%.
Consider `COc1ccc(C(=O)Cn2cc(CNC(=O)CCN3c4ccccc4Sc4ccccc43)nn2)cc1`, for which the inhibition in assay [2] was determined as 29.3%.
Still for that read-out and setting: next, `O=C(CN1c2ccccc2Sc2ccccc21)NCc1cn(CC(=O)c2ccc(F)cc2)nn1`: 0%.
Take `O=C(CCN1c2ccccc2Sc2ccccc21)NCc1cn(CC(=O)c2ccc(Br)cc2)nn1`: the IC50 in [1] is 8.3 µM. The inhibition of growth at 10 µM in the assay with CCRF-CEM was 18%; in the assay with CAKI-1, 37%; with UO-31 it was 42%; in the assay on MDA-MB-231, 14%; with SNB-75, 18%; in the assay on RPMI-8226, 15%. In addition, the inhibition of growth at 10 µM with LOX IMVI was found to be 17%; in the assay on HL-60(TB), 41%; in the assay on T47D it was 29%; with UACC-62, 29%; in the assay on SK-MEL-5, 24%; in the assay with HCT-15, 7%. Further, the inhibition of growth at 10 µM was found to be 24% in the assay on EKVX, 42% with PC-3 and 34% in the assay on MOLT-4. Also, the “growth inhibition (GI)” value with OVCAR-8 is “inactive”.
For the compound `N#Cc1ccc(C(=O)Cn2cc(COC(=O)CCN3c4ccccc4Sc4ccccc43)nn2)cc1`, the inhibition in [2] was determined as 55.1%.
In the case of `O=C(CN1c2ccccc2Sc2ccccc21)NCc1cn(CC(=O)c2ccc(Br)cc2)nn1`, the IC50 in [1] was 24.3 µM. The inhibition of growth at 10 µM amounted to 17% with CCRF-CEM; 13% with CAKI-1; 6% in the assay on OVCAR-8; 13% with UO-31; 9% in the assay on MDA-MB-231; 18% with SNB-75. Further, the inhibition of growth at 10 µM was 22% in the assay with RPMI-8226; 13% in the assay with HL-60(TB); 12% in the assay with T47D; 25% in the assay on UACC-62; 5% with SK-MEL-5; 16% with HCT-15. The inhibition of growth at 10 µM with MOLT-4 was 42%. Besides, the “growth inhibition (GI)” value with LOX IMVI and in the assay on EKVX was “inactive” throughout.
